The source of these data is PMC5352051, “Identification of a novel Polo-like kinase 1 inhibitor that specifically blocks the functions of Polo-Box domain” (Oncotarget, 2016).

Data set [1] has as its system Plk1, Cyclin B1 and pHH-3 in HeLa cells. Kind of data set: Western blot of mitotic markers. The settings on record: synchronized HeLa, indicated concentrations, 16 hrs. In kind it is cell-based, human. The protocol: HeLa cells were collected after trypsinization and lysed with RIPA buffer. Equal amount of proteins (30 μg/lane) were loaded, separated by 15% SDS-PAGE. After blocking with blocking buffer for 2 hrs at RT, the membrane was incubated with the following primary antibodies diluted in blocking buffer overnight at 4°C: anti-hPlk1 mouse monoclonal antibody (Cat# P5998; Sigma; 1:3000), anti-CyclinB1 rabbit polyclonal antibody (Cat# SAB4503501; Sigma; 1:2000), anti-pHH3 rabbit monoclonal antibody (Cat# 04-817; Millipore; 1:2000), anti-GAPDH rabbit polyclonal antibody (Cat# P30008; Abmart; 1:2000). The membrane was washed 3 times and then incubated with Horseradish Peroxidase-conjugated secondary antibodies for 1 hr at RT and visualized with ECL system (Millipore). The level of GAPDH was used as the loading control.

For data set [2], the system named is A549 lung-carcinoma cells. Kind of data set: A549 xenograft in nude mice, tumor volume. The settings on record: intratumoral injection 50 and 100 mg/kg, Wednesdays and Fridays, 5 weeks, vs DMSO. In kind it is in vivo. The protocol:
(§1) Female athymic nude mice were injected with 2.0 × 10^7 A549 lung-carcinoma cells subcutaneously. After 14~20 days, when the tumor volumes reached 100~150 mm^3, animals were divided into treatment (T521; 50, 100 mg/kg) and control (DMSO) groups with ten mice in each group. T521 (0.2 g/mL) dissolved in DMSO was administered alone and mice were treated with T521 by intratumoral injection at the different injection points according to indicated dose on Wednesdays and Fridays for 5 weeks. Tumor volumes were determined with a caliper on Monday and Thursday during drug administration cycle. Tumor volume (mm^3) was calculated using the following equation: V=L×S^2×π/6, where L is the length and S is width of the tumor. The body weight of these mice was determined as an indicator of tolerability on the same days. Student's t-tests were performed for statistical evaluation among treatment and control groups. All mice were properly treated in accordance with the guidelines of the local animal committee.

Data set [3] concerns HeLa cells. Kind of data set: Cell cycle analysis by flow cytometry (DNA content). The settings on record: synchronized HeLa, 10 μM. In kind it is cell-based, human. The protocol: HeLa cells (1.0×10^5 cells/well) were synchronized at G1/S boundary by double-thymidine block and then released into various media with indicated reagents. For cell cycle analysis, HeLa cells were harvested at different time points, washed twice with PBS, fixed in ice-cold 70% ethanol for 30 min at 4°C, and incubated with 500 μL of Propidium Iodine (Sigma; 10 μg/mL) and RNase A (Sigma; 1 mg/mL) for 30 min at 37°C in the dark prior to flow cytometry analysis (FACScan, BD Biosciences).

The subject of data set [4] is HeLa cells. Kind of data set: Apoptosis assay, Annexin V/PI dual-staining. In kind it is cell-based, human. The settings on record: exponentially growing HeLa, various concentrations, 24 hrs, vs DMSO. The protocol:
For apoptosis assay, HeLa cells were seeded at 3.0×10^4 cells/well into 6-well plates and incubated overnight. Then exponentially growing HeLa cells were treated with T521 at the indicated concentrations for 24 hrs and Annexin V/PI dual-staining was carried out using a commercial apoptosis assay kit (Beijing 4A Biotech. Co., Ltd.). DMSO-treated cells were taken as control.

Another data set deals with T1, Plk1 (Homo sapiens, UniProt P53350).
T1 construct: purchased Sino Biological Inc
The data set is described as follows: HPLC-Q-TOF mass spectrometry of intact protein after incubation. The settings on record: Plk1 10 μM, T521 500 μM, 50 mM Tris-HCl pH8.0, RT, 30 min. It is filed as binding. The protocol:
(§2) The covalent binding mode was speculated from the interactions between Poloxin, TQ and Plk1 PBD [23]. […] To test this possibility, we incubated purified Plk1 (10 μM) with T521 (500 μM) in 50 mM Tris-HCl (pH8.0) at room temperature for 30 min. […] In contrast, no addition of T521 to Plk2 or Plk3 was detected after their incubation with T521 (Supplementary Figure S1C, S1D, S1E and S1F).
(§3) Supplementary Figure S1: Analysis of binding mode between T521 and Plk1-3 using HPLC-Q-TOF MS. Plk1-3 (10 μM) proteins were incubated with or without T521 (500 μM) in 50 mM Tris-HCl (pH8.0) at RT for 30 min. The desalted samples (5 μg) were eluted with an HPLC gradient program into a Q-TOF mass spectrometer (Agilent, USA). Mass spectra were obtained after deconvolution.
(§4) A, C, E. The analysis of Plk1-3 proteins after incubation in the absence of T521. B, D, F. The analysis of Plk1-3 proteins after incubation […]
(§5) (also on this page, place not known: www.impactjournals.com/oncotarget/ Oncotarget, Materials 2016 Supplementary) […]

A further data set deals with T2, Plk2 (Homo sapiens, UniProt Q9NYY3).
T2 construct: purchased Sino Biological Inc
The data set is described as above. The settings on record: Plk2 10 μM, T521 500 μM, RT, 30 min. In kind it is binding. The protocol: as §2, §3, §4, §5

A further data set addresses T3, Plk3 (Homo sapiens, UniProt Q9H4B4).
T3 construct: purchased Sino Biological Inc
The data set is described as above. It is filed as binding. The settings on record: Plk3 10 μM, T521 500 μM, RT, 30 min. The protocol: as §2, §3, §4, §5

Data set [5] is described as follows: Body weight of xenografted nude mice (tolerability). In kind it is in vivo. The settings on record: intratumoral injection 50 and 100 mg/kg, 5 weeks, vs control. The protocol:
as §1

In a further data set the target is T4, Plk1-Bub1 interaction (Homo sapiens, UniProt P53350).
T4 construct: endogenous in cells; host or cells: HeLa
The data set is described as follows: Co-immunoprecipitation (IP) assay in HeLa cells. It is filed as cell-based. The settings on record: HeLa cells released from double-thymidine arrest, 5, 10, 15 μM, 10 hrs. The protocol:
HeLa cells were synchronized in G1/S boundary by double-thymidine block as described, and then released into medium containing DMSO and T521 (5, 10, 15 μM) for 10 hrs. For Co-IP assay, rabbit polyclonal anti-Bub1 antibody (Cat# ab70372; Abcam) was coupled to Protein A-Agarose beads (Cat# sc-2001; Santa Cruz) at a concentration 100 μg/mL. Treated HeLa cells were lysed with RIPA buffer. After clearing by centrifugation, the lysate was incubated with the beads coupled to anti-Bub1 antibody for 2 hrs at 4°C. The beads were washed with the lysis buffer for three times. The proteins bound to the beads were dissolved in loading buffer and separated by 10% SDS-PAGE, and probed with the mouse monoclonal anti-hPlk1 antibody (Cat# P5998; Sigma; 1:3000) and rabbit polyclonal anti-Bub1 antibody (Cat# ab70372;Abcam; 1:2000), respectively.

T1 sequence (P53350 whole entry): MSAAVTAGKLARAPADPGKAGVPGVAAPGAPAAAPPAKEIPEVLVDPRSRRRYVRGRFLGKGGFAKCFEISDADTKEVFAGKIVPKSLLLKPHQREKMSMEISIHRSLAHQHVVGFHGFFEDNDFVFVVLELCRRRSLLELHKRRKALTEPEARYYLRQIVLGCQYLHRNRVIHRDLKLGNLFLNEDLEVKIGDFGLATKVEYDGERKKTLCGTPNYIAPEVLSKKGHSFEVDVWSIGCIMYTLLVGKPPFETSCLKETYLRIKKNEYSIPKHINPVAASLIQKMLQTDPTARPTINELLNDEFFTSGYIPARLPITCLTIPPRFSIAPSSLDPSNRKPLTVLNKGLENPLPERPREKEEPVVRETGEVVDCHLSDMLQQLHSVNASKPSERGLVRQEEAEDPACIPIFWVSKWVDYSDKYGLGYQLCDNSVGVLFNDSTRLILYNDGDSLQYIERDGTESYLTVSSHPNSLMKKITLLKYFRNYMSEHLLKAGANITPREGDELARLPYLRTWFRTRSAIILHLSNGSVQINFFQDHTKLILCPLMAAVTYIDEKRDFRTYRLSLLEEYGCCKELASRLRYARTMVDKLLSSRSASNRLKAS
T2 sequence (Q9NYY3 whole entry): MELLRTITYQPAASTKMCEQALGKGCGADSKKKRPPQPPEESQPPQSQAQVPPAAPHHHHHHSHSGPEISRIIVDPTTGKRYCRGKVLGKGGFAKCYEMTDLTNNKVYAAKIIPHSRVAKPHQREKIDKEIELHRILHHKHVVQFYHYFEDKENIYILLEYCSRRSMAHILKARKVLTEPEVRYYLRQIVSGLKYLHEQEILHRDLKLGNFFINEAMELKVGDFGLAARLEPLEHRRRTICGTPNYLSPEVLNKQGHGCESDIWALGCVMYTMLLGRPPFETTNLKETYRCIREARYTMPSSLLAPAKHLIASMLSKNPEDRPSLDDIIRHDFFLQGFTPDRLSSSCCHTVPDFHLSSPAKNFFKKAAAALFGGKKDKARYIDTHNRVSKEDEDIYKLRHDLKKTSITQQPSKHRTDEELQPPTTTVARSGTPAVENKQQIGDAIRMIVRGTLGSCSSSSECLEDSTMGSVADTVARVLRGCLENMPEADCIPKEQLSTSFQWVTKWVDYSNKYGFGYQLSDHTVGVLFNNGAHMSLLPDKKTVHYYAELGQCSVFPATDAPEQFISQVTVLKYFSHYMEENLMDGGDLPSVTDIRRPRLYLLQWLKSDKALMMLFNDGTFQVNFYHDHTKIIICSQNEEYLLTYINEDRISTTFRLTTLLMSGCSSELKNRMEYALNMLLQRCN
T3 sequence (Q9H4B4 whole entry): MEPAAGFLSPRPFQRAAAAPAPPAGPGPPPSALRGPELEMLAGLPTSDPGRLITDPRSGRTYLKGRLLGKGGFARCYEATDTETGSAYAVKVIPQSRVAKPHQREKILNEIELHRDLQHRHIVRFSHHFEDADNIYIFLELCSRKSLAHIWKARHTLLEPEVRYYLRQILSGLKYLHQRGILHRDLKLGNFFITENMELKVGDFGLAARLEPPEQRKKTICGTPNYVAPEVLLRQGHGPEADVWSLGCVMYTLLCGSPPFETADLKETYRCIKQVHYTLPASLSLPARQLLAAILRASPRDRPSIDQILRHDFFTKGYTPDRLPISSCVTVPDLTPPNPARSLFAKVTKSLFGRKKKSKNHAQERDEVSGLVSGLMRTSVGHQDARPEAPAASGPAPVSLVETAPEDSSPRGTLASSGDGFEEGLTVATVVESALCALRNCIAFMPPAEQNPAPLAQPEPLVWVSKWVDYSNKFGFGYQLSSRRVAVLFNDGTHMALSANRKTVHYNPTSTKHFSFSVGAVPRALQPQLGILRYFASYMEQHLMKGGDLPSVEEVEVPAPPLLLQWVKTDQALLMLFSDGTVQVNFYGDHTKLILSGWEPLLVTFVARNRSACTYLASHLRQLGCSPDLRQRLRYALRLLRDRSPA
T4 sequence (P53350 2-603 limits assumed): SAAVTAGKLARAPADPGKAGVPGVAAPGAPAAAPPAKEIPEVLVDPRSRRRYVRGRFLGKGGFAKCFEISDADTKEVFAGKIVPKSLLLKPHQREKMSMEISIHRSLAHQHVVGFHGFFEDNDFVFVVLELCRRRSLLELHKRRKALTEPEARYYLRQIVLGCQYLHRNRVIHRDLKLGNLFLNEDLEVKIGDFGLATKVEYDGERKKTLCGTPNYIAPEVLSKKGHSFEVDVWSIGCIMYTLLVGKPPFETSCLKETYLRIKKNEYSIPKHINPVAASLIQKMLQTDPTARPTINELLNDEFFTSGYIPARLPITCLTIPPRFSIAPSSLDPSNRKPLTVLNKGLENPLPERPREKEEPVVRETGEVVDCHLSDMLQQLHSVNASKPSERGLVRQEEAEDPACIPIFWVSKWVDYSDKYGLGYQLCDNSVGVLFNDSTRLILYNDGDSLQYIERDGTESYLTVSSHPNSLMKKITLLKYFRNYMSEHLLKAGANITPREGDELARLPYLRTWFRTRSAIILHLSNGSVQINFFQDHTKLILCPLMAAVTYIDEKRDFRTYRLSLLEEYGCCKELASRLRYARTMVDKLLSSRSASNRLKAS

In the case of `CCS(=O)(=O)c1oc(-c2ccc(F)cc2)nc1S(=O)(=O)c1ccccc1` [T521, 5-(ethylsulfonyl)-2-(4-fluorophenyl)-4-(phenylsulfonyl) oxazole], the “mitotic markers (Plk1, Cyclin B1, pHH-3) protein levels” value in data set [1] is recorded as “accumulation of these mitotic markers”. Also, the tumor volume entry in data set [2] is on record as “obvious reduction of tumor volume”. In addition, the “cells with 4C DNA content” value in the data set with HeLa cells [3] (16 hrs after release) is given as “about 40%”. In addition, the “cells remaining in G2/M phase” value in the data set on HeLa cells [3] (entire course (24 hrs)) is listed as “At least 20%”. Besides, the “cell population positive for Annexin V staining” value in the data set on HeLa cells [4] is listed as “increase of cell population positive for Annexin V staining”. For the same compound, at Plk1, the “increase of intact mass of protein (covalent addition)” value was found to be 907.05 Da. In addition, the “covalent addition to protein” value on Plk2 and on Plk3 was “no addition” each time. The “tolerability by body weight” value in data set [5] is recorded as “well tolerated”. For the same compound, on Plk1-Bub1 interaction, the “Plk1 protein level in Bub1 immunoprecipitates” value was “clear decrease”.
